Measurements reported in ChEMBL document CHEMBL2346657, “Synthesis of novel 2-amino-4-(5'-substituted 2'-phenyl-1H-indol-3'-yl)-6-aryl-4H-pyran-3-carbonitrile derivatives as antimicrobial and antioxidant agents” (2013).
Active and inactive are the calls of the source. How the calls were made is not given here.

system: Staphylococcus aureus; assay: Antimicrobial activity against Staphylococcus aureus ATCC 29513 at 750 ug/ml after 24 hrs by cup plate method; type: functional; conditions: ATCC 29513, 24 h, read-out: IZ

Question: Which zone of inhibition at 750 µg/mL does the source give for `Nc1nc(=S)[nH]c2c1C(c1c(-c3ccccc3)[nH]c3ccc(Cl)cc13)C=C(c1ccccc1)O2` (stereo not given) here?
Answer: 9 mm

system: Escherichia coli; assay: Antimicrobial activity against Escherichia coli MTCC 723 at 1000 ug/ml after 24 hrs by cup plate method; type: functional; conditions: MTCC 723, 24 h, read-out: IZ

Question: For `Nc1nc(=S)[nH]c2c1C(c1c(-c3ccccc3)[nH]c3ccc(Cl)cc13)C=C(c1ccccc1)O2` (stereo not given), which zone of inhibition at 1000 µg/mL is on record?
Answer: 8 mm

system: Pseudomonas aeruginosa; assay: Antimicrobial activity against Pseudomonas aeruginosa MTCC 1688 at 1000 ug/ml after 24 hrs by cup plate method; type: functional; conditions: MTCC 1688, 24 h, read-out: IZ

Question: For `Nc1nc(=S)[nH]c2c1C(c1c(-c3ccccc3)[nH]c3ccc(Cl)cc13)C=C(c1ccccc1)O2` (stereo not given), which zone of inhibition at 1000 µg/mL is on record?
Answer: 5 mm

system: Pseudomonas aeruginosa; assay: Antimicrobial activity against Pseudomonas aeruginosa MTCC 1688 at 500 ug/ml after 24 hrs by cup plate method; type: functional; conditions: MTCC 1688, 24 h, read-out: IZ

Question: Which zone of inhibition at 500 µg/mL does the source give for `Nc1nc(=S)[nH]c2c1C(c1c(-c3ccccc3)[nH]c3ccc(Cl)cc13)C=C(c1ccccc1)O2` (stereo not given) here?
Answer: 6 mm

system: not listed separately; assay: Antioxidant activity assessed as metal chelating activity by measuring inhibition of ferrozine-Fe2+ complex formation at 25 to 100 ug/ml; type: functional; conditions: not given

Question: For `Nc1nc(=S)[nH]c2c1C(c1c(-c3ccccc3)[nH]c3ccc(Cl)cc13)C=C(c1ccccc1)O2` (stereo not given), which Activity is on record?
Answer: Active

system: Pseudomonas aeruginosa; assay: Antimicrobial activity against Pseudomonas aeruginosa MTCC 1688 at 750 ug/ml after 24 hrs by cup plate method; type: functional; conditions: MTCC 1688, 24 h, read-out: IZ

Question: With `Nc1nc(=S)[nH]c2c1C(c1c(-c3ccccc3)[nH]c3ccc(Cl)cc13)C=C(c1ccccc1)O2` (stereo not given) as the compound, how does the zone of inhibition at 750 µg/mL read?
Answer: 5 mm

system: Aspergillus flavus; assay: Antimicrobial activity against Aspergillus flavus MTCC 1973 at 750 ug/ml after 72 hrs by cup plate method; type: functional; conditions: MTCC 1973, 72 h, read-out: IZ

Question: Which zone of inhibition at 750 µg/mL does the source give for `Nc1nc(=S)[nH]c2c1C(c1c(-c3ccccc3)[nH]c3ccc(Cl)cc13)C=C(c1ccccc1)O2` (stereo not given) here?
Answer: 8 mm

system: Staphylococcus aureus; assay: Antimicrobial activity against Staphylococcus aureus ATCC 29513 at 1000 ug/ml after 24 hrs by cup plate method; type: functional; conditions: ATCC 29513, 24 h, read-out: IZ

Question: For `Nc1nc(=S)[nH]c2c1C(c1c(-c3ccccc3)[nH]c3ccc(Cl)cc13)C=C(c1ccccc1)O2` (stereo not given), which zone of inhibition at 1000 µg/mL is on record?
Answer: 9 mm

system: Escherichia coli; assay: Antimicrobial activity against Escherichia coli MTCC 723 at 500 ug/ml after 24 hrs by cup plate method; type: functional; conditions: MTCC 723, 24 h, read-out: IZ

Question: Which zone of inhibition at 500 µg/mL does the source give for `Nc1nc(=S)[nH]c2c1C(c1c(-c3ccccc3)[nH]c3ccc(Cl)cc13)C=C(c1ccccc1)O2` (stereo not given) here?
Answer: 10 mm

system: Aspergillus niger; assay: Antimicrobial activity against Aspergillus niger MTCC 281 at 750 ug/ml after 72 hrs by cup plate method; type: functional; conditions: MTCC 281, 72 h, read-out: IZ

Question: With `Nc1nc(=S)[nH]c2c1C(c1c(-c3ccccc3)[nH]c3ccc(Cl)cc13)C=C(c1ccccc1)O2` (stereo not given) as the compound, how does the zone of inhibition at 750 µg/mL read?
Answer: 5 mm

system: Escherichia coli; assay: Antimicrobial activity against Escherichia coli MTCC 723 at 750 ug/ml after 24 hrs by cup plate method; type: functional; conditions: MTCC 723, 24 h, read-out: IZ

Question: With `Nc1nc(=S)[nH]c2c1C(c1c(-c3ccccc3)[nH]c3ccc(Cl)cc13)C=C(c1ccccc1)O2` (stereo not given) as the compound, how does the zone of inhibition at 750 µg/mL read?
Answer: 8 mm

system: Aspergillus oryzae; assay: Antimicrobial activity against Aspergillus oryzae MTCC 3567 at 1000 ug/ml after 72 hrs by cup plate method; type: functional; conditions: MTCC 3567, 72 h, read-out: IZ

Question: With `Nc1nc(=S)[nH]c2c1C(c1c(-c3ccccc3)[nH]c3ccc(Cl)cc13)C=C(c1ccccc1)O2` (stereo not given) as the compound, how does the zone of inhibition at 1000 µg/mL read?
Answer: 0 mm

system: Aspergillus terreus; assay: Antimicrobial activity against Aspergillus terreus MTCC 1782 at 750 ug/ml after 72 hrs by cup plate method; type: functional; conditions: MTCC 1782, 72 h, read-out: IZ

Question: With `Nc1nc(=S)[nH]c2c1C(c1c(-c3ccccc3)[nH]c3ccc(Cl)cc13)C=C(c1ccccc1)O2` (stereo not given) as the compound, how does the zone of inhibition at 750 µg/mL read?
Answer: 8 mm

system: Klebsiella pneumoniae; assay: Antimicrobial activity against Klebsiella pneumoniae NCTC 13368 at 1000 ug/ml after 24 hrs by cup plate method; type: functional; conditions: NCTC 13368, 24 h, read-out: IZ

Question: For `Nc1nc(=S)[nH]c2c1C(c1c(-c3ccccc3)[nH]c3ccc(Cl)cc13)C=C(c1ccccc1)O2` (stereo not given), which zone of inhibition at 1000 µg/mL is on record?
Answer: 10 mm

system: Klebsiella pneumoniae; assay: Antimicrobial activity against Klebsiella pneumoniae NCTC 13368 at 500 ug/ml after 24 hrs by cup plate method; type: functional; conditions: NCTC 13368, 24 h, read-out: IZ

Question: Which zone of inhibition at 500 µg/mL does the source give for `Nc1nc(=S)[nH]c2c1C(c1c(-c3ccccc3)[nH]c3ccc(Cl)cc13)C=C(c1ccccc1)O2` (stereo not given) here?
Answer: 10 mm

system: Aspergillus flavus; assay: Antimicrobial activity against Aspergillus flavus MTCC 1973 at 1000 ug/ml after 72 hrs by cup plate method; type: functional; conditions: MTCC 1973, 72 h, read-out: IZ

Question: With `Nc1nc(=S)[nH]c2c1C(c1c(-c3ccccc3)[nH]c3ccc(Cl)cc13)C=C(c1ccccc1)O2` (stereo not given) as the compound, how does the zone of inhibition at 1000 µg/mL read?
Answer: 8 mm

system: Aspergillus terreus; assay: Antimicrobial activity against Aspergillus terreus MTCC 1782 at 1000 ug/ml after 72 hrs by cup plate method; type: functional; conditions: MTCC 1782, 72 h, read-out: IZ

Question: Which zone of inhibition at 1000 µg/mL does the source give for `Nc1nc(=S)[nH]c2c1C(c1c(-c3ccccc3)[nH]c3ccc(Cl)cc13)C=C(c1ccccc1)O2` (stereo not given) here?
Answer: 8 mm

system: Klebsiella pneumoniae; assay: Antimicrobial activity against Klebsiella pneumoniae NCTC 13368 at 750 ug/ml after 24 hrs by cup plate method; type: functional; conditions: NCTC 13368, 24 h, read-out: IZ

Question: With `Nc1nc(=S)[nH]c2c1C(c1c(-c3ccccc3)[nH]c3ccc(Cl)cc13)C=C(c1ccccc1)O2` (stereo not given) as the compound, how does the zone of inhibition at 750 µg/mL read?
Answer: 10 mm

system: Aspergillus terreus; assay: Antimicrobial activity against Aspergillus terreus MTCC 1782 at 500 ug/ml after 72 hrs by cup plate method; type: functional; conditions: MTCC 1782, 72 h, read-out: IZ

Question: Which zone of inhibition at 500 µg/mL does the source give for `Nc1nc(=S)[nH]c2c1C(c1c(-c3ccccc3)[nH]c3ccc(Cl)cc13)C=C(c1ccccc1)O2` (stereo not given) here?
Answer: 9 mm

system: Aspergillus niger; assay: Antimicrobial activity against Aspergillus niger MTCC 281 at 500 ug/ml after 72 hrs by cup plate method; type: functional; conditions: MTCC 281, 72 h, read-out: IZ

Question: For `Nc1nc(=S)[nH]c2c1C(c1c(-c3ccccc3)[nH]c3ccc(Cl)cc13)C=C(c1ccccc1)O2` (stereo not given), which zone of inhibition at 500 µg/mL is on record?
Answer: 5 mm

system: Staphylococcus aureus; assay: Antimicrobial activity against Staphylococcus aureus ATCC 29513 at 500 ug/ml after 24 hrs by cup plate method; type: functional; conditions: ATCC 29513, 24 h, read-out: IZ

Question: For `Nc1nc(=S)[nH]c2c1C(c1c(-c3ccccc3)[nH]c3ccc(Cl)cc13)C=C(c1ccccc1)O2` (stereo not given), which zone of inhibition at 500 µg/mL is on record?
Answer: 9 mm

system: Aspergillus oryzae; assay: Antimicrobial activity against Aspergillus oryzae MTCC 3567 at 750 ug/ml after 72 hrs by cup plate method; type: functional; conditions: MTCC 3567, 72 h, read-out: IZ

Question: For `Nc1nc(=S)[nH]c2c1C(c1c(-c3ccccc3)[nH]c3ccc(Cl)cc13)C=C(c1ccccc1)O2` (stereo not given), which zone of inhibition at 750 µg/mL is on record?
Answer: 10 mm

system: Aspergillus niger; assay: Antimicrobial activity against Aspergillus niger MTCC 281 at 1000 ug/ml after 72 hrs by cup plate method; type: functional; conditions: MTCC 281, 72 h, read-out: IZ

Question: Which zone of inhibition at 1000 µg/mL does the source give for `Nc1nc(=S)[nH]c2c1C(c1c(-c3ccccc3)[nH]c3ccc(Cl)cc13)C=C(c1ccccc1)O2` (stereo not given) here?
Answer: 10 mm

system: Aspergillus flavus; assay: Antimicrobial activity against Aspergillus flavus MTCC 1973 at 500 ug/ml after 72 hrs by cup plate method; type: functional; conditions: MTCC 1973, 72 h, read-out: IZ

Question: With `Nc1nc(=S)[nH]c2c1C(c1c(-c3ccccc3)[nH]c3ccc(Cl)cc13)C=C(c1ccccc1)O2` (stereo not given) as the compound, how does the zone of inhibition at 500 µg/mL read?
Answer: 8 mm

system: Aspergillus oryzae; assay: Antimicrobial activity against Aspergillus oryzae MTCC 3567 at 500 ug/ml after 72 hrs by cup plate method; type: functional; conditions: MTCC 3567, 72 h, read-out: IZ

Question: For `Nc1nc(=S)[nH]c2c1C(c1c(-c3ccccc3)[nH]c3ccc(Cl)cc13)C=C(c1ccccc1)O2` (stereo not given), which zone of inhibition at 500 µg/mL is on record?
Answer: 10 mm
